In PubChem BioAssay (NCI):
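96-well plates; 48 h exposure; 5 concentrations. Endpoints by linear interpolation between flanking doses. Not reached: highest tested concentration assigned. TGI: total growth inhibition.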

Experiments:
Assay in all cases: growth of human tumour cells (NCI), 48 h
CCRF-CEM leukemia = tested on: CCRF-CEM leukemia
COLO 205 colon = tested on: COLO 205 colon
HOP-62 NSCLC = tested on: HOP-62 NSCLC
MOLT-4 leukemia = tested on: MOLT-4 leukemia
OVCAR-4 ovarian = tested on: OVCAR-4 ovarian
SR leukemia = tested on: SR leukemia
U251 CNS = tested on: U251 CNS

| SMILES | TGI (CCRF-CEM leukemia) [µM] | TGI (COLO 205 colon) [µM] | TGI (HOP-62 NSCLC) [µM] | TGI (MOLT-4 leukemia) [µM] | TGI (OVCAR-4 ovarian) [µM] | TGI (SR leukemia) [µM] | TGI (U251 CNS) [µM] |
| --- | --- | --- | --- | --- | --- | --- | --- |
| c1ccc(-c2cc(-c3cc(-c4ccccc4)n[nH]3)[nH]n2)cc1 | > 100 | > 100 | > 100 | > 100 | > 100 | > 100 | > 100 |
| N#Cc1nsnc1-c1nc(-c2nsnc2C#N)nc(-c2nsnc2C#N)n1 |  | > 100 | > 100 | > 100 | > 100 | > 100 | > 100 |
| CC(C)(C)OC(=O)/C=C/C(=O)O/C=C/[N+](=O)[O-] | > 100 | > 100 | > 100 |  |  | > 100 | > 100 |
| c1ccc2c(Cc3c[nH]c4ccccc34)c[nH]c2c1 | 37.2 | 27.8 | 33.8 | 61.1 | 35.3 | 34.2 | 37.2 |
| O=[N+]([O-])C(=C/C1CCCCC1)/C(=C\C1CCCCC1)[N+](=O)[O-] | 17.7 | 9.29 | 19.1 | > 26.1 | 40.1 | 6.89 | 14.7 |
| O=C1CNc2cc(N3CCN(c4cccc(C(F)(F)F)c4)CC3)ccc2N1 | > 100 | > 91.7 | > 100 | > 84.3 | > 100 | > 100 | > 100 |
| CCO[C@H]1C[C@@H](c2ccccc2)[C@]2(C)C[C@H](C(=O)OC)ON2O1 | > 100 | > 100 | > 100 | > 100 | > 100 |  | > 100 |
| Cc1ccc(N2C(=O)CC(=O)N(NC(=O)C(C)Oc3ccccc3C)C2=S)cc1 (configuration not stated) | 5.59 | > 100 | > 100 | > 100 | > 100 | > 100 | > 100 |
| COc1ncc(C#CC(=O)c2ccccc2OC)c(OC)n1 | 1.58 | 4.12 | 40.5 | 1.61 | 20.7 |  | 8.33 |
| O=C1NC(N/N=C/C(O)C(O)C(O)C(O)CO)=N/C1=C\c1cccs1 (configuration not stated) | > 100 | > 100 | > 100 | > 100 | > 100 |  | > 100 |
| NNC(=O)CCCCCCCC(=O)O | > 100 | > 100 | > 100 | > 100 | > 100 | > 100 | > 100 |
| C=CCOc1ccc(C2c3c([nH][nH]c3=O)CC(C)(O)C2C(=O)OC)cc1OC (configuration not stated) | > 100 | > 100 | > 100 | > 100 | > 100 | > 100 | > 100 |
| C=C(Br)C(Cl)(CBr)CCC(Br)C(C)(C)Cl (configuration not stated) | > 10 | > 10 | > 10 | > 10 | > 10 | > 10 | > 10 |
| C=C1CC(CNc2cc(Cl)nc(N)n2)C1 | > 100 | > 100 | > 100 | > 100 | > 100 | > 100 | > 100 |
| COC(=O)CC1(O)C(C=C(C)C)C(C(=O)OC)C(=O)C(C(=O)OC)C1C(=O)OC (configuration not stated) | > 100 | > 100 | > 100 | > 100 | > 100 | > 100 | > 100 |
| FC(F)(F)C1(C(F)(F)F)OC(Cl)(Cl)C(Cl)(Cl)O1 |  | > 10 | > 10 |  | > 10 |  | > 10 |
| C/C=C/[C@@H]1O[C@H](CC#C[Si](C)(C)C)[C@@]2(C=O)C(C)=CC[C@H](C(C)C)[C@@H]12 | 6.24 | 66.1 | 82.7 | 34.5 | 51.7 | 56.3 | 34.4 |
| O=C(CN=C(CN(c1ccccc1)c1ccccc1)Oc1c([N+](=O)[O-])cc([N+](=O)[O-])cc1[N+](=O)[O-])N1CCNCC1 | > 100 | > 100 | > 100 | > 100 | > 100 | > 100 | > 100 |
| Cc1[nH]n(-c2nc(O)c(C)c(=O)[nH]2)c(=O)c1CCO | > 100 | > 100 |  | > 100 | > 100 |  | > 100 |
| OCCCN(CCc1ccc(Cl)c(Cl)c1)CCN1CCCC1 | > 100 |  | > 100 | > 100 | > 100 | > 100 | > 100 |
| CC1(C)OC[C@@]2([C@@H]3CC[C@@H](C3)C2(C)C)N1O | > 100 | > 100 | > 100 | > 100 | > 100 |  | > 100 |
| CC1CSc2nc3[nH]c(=S)[nH]c3c(=O)n2C1 (configuration not stated) | > 100 | > 100 | > 100 | > 100 | > 100 |  | > 100 |
| C(/C=N/NC1=NCCN1)=N\NC1=NCCN1 | > 100 | > 100 | > 100 | > 100 | > 100 | > 100 | > 100 |
| O=C(O)c1cc2c(cc1S(=O)(=O)O)C1C(C3C2C2(Cl)C(Cl)=C(Cl)C3(Cl)C2(Cl)Cl)C2(Cl)C(Cl)=C(Cl)C1(Cl)C2(Cl)Cl (configuration not stated) | 37.3 | > 100 | 89.1 | > 100 | > 100 | 74.7 | > 100 |
| N#C[C@](CO)(NC(=O)OCc1ccccc1)C(F)F | > 100 | > 100 | > 100 | > 100 | > 100 | > 100 | > 100 |
| CCOC(=O)NNC1(SC)NC(=O)c2c(cc(Cl)oc2=O)O1 (configuration not stated) | 10.5 | 25.9 | 25.6 | 10.3 | 18.9 | 6.69 | 25.5 |
| Cc1ccc(NNc2cc(=O)[nH]c(=O)[nH]2)cc1Cl | 62.4 | 30.6 | > 100 | 58.3 | 28.5 | > 100 | 30 |
| C=CCC1(O)c2cccc(O)c2C(=O)c2cccc(O)c21 (configuration not stated) |  |  | 49.7 | 53.6 | > 100 | 36.3 | 45.5 |
| CC1(C)N=C(N)N=C(N)N1c1ccc(CCCCc2ccc(Cl)cc2Cl)cc1 | 76 | 4.88 | 10.6 | > 100 | 13.5 | 60.4 | 15.2 |
